Measurements as given in PubChem BioAssay AID248 (DTP/NCI, 2004).
Where “and” joins values, the source holds several entries; their conditions need not be identical. Equal entries are not always repeated. Inconclusive results and toxic doses are left out. Cut-off read from the data, not from the text of the source: active = T/C of 150% or more; inactive = T/C below 125%.

System: L1210 leukemia ip in BDF1 mice, survival T/C
Test: NCI In Vivo Anticancer Drug Screen. Data for tumor model L1210 Leukemia (intraperitoneal) in B6D2F1 (BDF1) mice
Conditions: endpoint: mean survival time, higher = longer survival
How it was run: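 In this screen, tumor-bearing mice given compound are compared to those given vehicle, and their survival values are reported as a treated-to-control quotient.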

[1] = dose: 100.0 mg/kg/injection, schedule: Q04DX002 (ip), vehicle: Klucel (hydroxypropylcellulose) (HPC)
[2] = dose: 200.0 mg/kg/injection, schedule: Q04DX002 (ip), vehicle: Klucel (hydroxypropylcellulose) (HPC)
[3] = dose: 400.0 mg/kg/injection, schedule: Q04DX002 (ip), vehicle: Klucel (hydroxypropylcellulose) (HPC)
[4] = dose: 100.0 mg/kg/injection, schedule: Q01DX009 (ip), vehicle: saline with Tween-80
[5] = dose: 100.0 mg/kg/injection, schedule: Q04DX003 (ip), vehicle: saline with Tween-80
[6] = dose: 200.0 mg/kg/injection, schedule: Q01DX009 (ip), vehicle: saline with Tween-80
[7] = dose: 200.0 mg/kg/injection, schedule: Q04DX003 (ip), vehicle: saline with Tween-80
[8] = dose: 400.0 mg/kg/injection, schedule: Q01DX009 (ip), vehicle: saline with Tween-80
[9] = dose: 400.0 mg/kg/injection, schedule: Q04DX003 (ip), vehicle: saline with Tween-80
[10] = dose: 100.0 mg/kg/injection, schedule: Q04DX003 (ip), vehicle: saline
[11] = dose: 200.0 mg/kg/injection, schedule: Q04DX003 (ip), vehicle: saline
[12] = dose: 400.0 mg/kg/injection, schedule: Q04DX003 (ip), vehicle: saline
[13] = dose: 100.0 mg/kg/injection, schedule: Q01DX009 (ip), vehicle: Klucel (hydroxypropylcellulose) (HPC)
[14] = dose: 100.0 mg/kg/injection, schedule: Q04DX003 (ip), vehicle: Klucel (hydroxypropylcellulose) (HPC)
[15] = dose: 200.0 mg/kg/injection, schedule: Q04DX003 (ip), vehicle: Klucel (hydroxypropylcellulose) (HPC)
[16] = dose: 400.0 mg/kg/injection, schedule: Q04DX003 (ip), vehicle: Klucel (hydroxypropylcellulose) (HPC)
[17] = dose: 100.0 mg/kg/injection, schedule: Q01DX001 (ip), vehicle: Klucel (hydroxypropylcellulose) (HPC)
[18] = dose: 200.0 mg/kg/injection, schedule: Q01DX001 (ip), vehicle: Klucel (hydroxypropylcellulose) (HPC)
[19] = dose: 400.0 mg/kg/injection, schedule: Q01DX001 (ip), vehicle: Klucel (hydroxypropylcellulose) (HPC)
[20] = dose: 100.0 mg/kg/injection, schedule: Q01DX001 (ip), vehicle: saline
[21] = dose: 200.0 mg/kg/injection, schedule: Q01DX001 (ip), vehicle: saline
[22] = dose: 400.0 mg/kg/injection, schedule: Q01DX001 (ip), vehicle: saline
[23] = dose: 50.0 mg/kg/injection, schedule: Q04DX003 (ip), vehicle: Klucel (hydroxypropylcellulose) (HPC)

Measured: T/C

CCOC(=O)N1Cc2cc3ccccc3nc2C1C1OC(CC)(C(=O)OCC)C1=O (stereo not given)
inactive: dose: 10.0 mg/kg/injection, schedule: Q07DX002 (ip), vehicle: alcohol 96 % of control | dose: 20.0 mg/kg/injection, schedule: Q07DX002 (ip), vehicle: alcohol 105 % of control | dose: 40.0 mg/kg/injection, schedule: Q07DX002 (ip), vehicle: alcohol 89 % of control | dose: 80.0 mg/kg/injection, schedule: Q07DX002 (ip), vehicle: alcohol 105 % of control

O=C(Oc1ccccc1)C(Cl)(Cl)Cl
inactive: dose: 6.25 mg/kg/injection, schedule: Q01DX009 (ip), vehicle: saline 95 % of control | dose: 12.5 mg/kg/injection, schedule: Q01DX009 (ip), vehicle: saline 92 % of control | dose: 25.0 mg/kg/injection, schedule: Q01DX009 (ip), vehicle: saline 89 % of control | dose: 100.0 mg/kg/injection, schedule: Q01DX001 (ip), vehicle: acetone 98 % of control | dose: 100.0 mg/kg/injection, schedule: Q04DX003 (ip), vehicle: acetone 95 % of control | dose: 200.0 mg/kg/injection, schedule: Q01DX001 (ip), vehicle: acetone 90 % of control | dose: 200.0 mg/kg/injection, schedule: Q04DX003 (ip), vehicle: acetone 98 % of control | dose: 400.0 mg/kg/injection, schedule: Q01DX001 (ip), vehicle: acetone 100 % of control

COc1cc(C)ccc1OC(=O)Nc1ccccc1
inactive: [1] 109 % of control | [2] 113 % of control | [3] 106 % of control

c1coc(-c2cnc3ccccc3n2)c1
inactive: dose: 75.0 mg/kg/injection, schedule: Q01DX001 (ip), vehicle: carboxymethylcellulose (CMC) 109 % of control | dose: 150.0 mg/kg/injection, schedule: Q01DX001 (ip), vehicle: carboxymethylcellulose (CMC) 91 % of control

Nc1cccc(NC(=O)Nc2ccccc2)c1
inactive: dose: 50.0 mg/kg/injection, schedule: Q04DX002 (ip), vehicle: Klucel (hydroxypropylcellulose) (HPC) 105 % of control | [1] 91 % of control

COc1ccc(NC(=O)Oc2ccc3c(C)cc(=O)oc3c2)c(OC)c1
inactive: [4] 106 % of control | [5] 101 % of control | [6] 106 % of control | [7] 116 % of control | [8] 118 % of control | [9] 106 % of control

CCCCCCCCCCN1CCC(N2CCCCC2)CC1
inactive: dose: 25.0 mg/kg/injection, schedule: Q04DX002 (ip), vehicle: saline 102 % of control | dose: 50.0 mg/kg/injection, schedule: Q04DX002 (ip), vehicle: saline 102 % of control | dose: 100.0 mg/kg/injection, schedule: Q04DX002 (ip), vehicle: saline 98 % of control and 91 % of control

CN(C)CC(Cl)CCl (stereo not given)
inactive: [10] 98 % of control | [11] 107 % of control | [12] 115 % of control

CCCCCC(C)O[Si](C)Oc1ccccc1 (stereo not given)
inactive: [5] 100 % of control | [7] 100 % of control | [9] 91 % of control

Cc1ccc(SC2CC3CC2C2COCC32)cc1 (stereo not given)
inactive: dose: 50.0 mg/kg/injection, schedule: Q01DX009 (ip), vehicle: Klucel (hydroxypropylcellulose) (HPC) 98 % of control | [13] 98 % of control | [14] 90 % of control | [15] 98 % of control

Cc1ccc(OCCOc2ccc(NC(=O)CC(=O)c3cccc([N+](=O)[O-])c3)cc2)cc1
inactive: [13] 100 % of control | [14] 95 % of control | dose: 200.0 mg/kg/injection, schedule: Q01DX009 (ip), vehicle: Klucel (hydroxypropylcellulose) (HPC) 103 % of control | [15] 98 % of control | dose: 400.0 mg/kg/injection, schedule: Q01DX009 (ip), vehicle: Klucel (hydroxypropylcellulose) (HPC) 97 % of control | [16] 97 % of control

COC(=O)C(=C(c1ccccc1)c1ccccc1)c1ccccc1
inactive: [5] 90 % of control | [7] 90 % of control

Cc1ccccc1N=Cc1cccc([N+](=O)[O-])c1
inactive: [17] 107 % of control | [14] 98 % of control | [18] 107 % of control | [15] 101 % of control | [19] 112 % of control | [16] 98 % of control

Cc1c(C#N)sc2ccccc12
inactive: [20] 96 % of control | [21] 96 % of control | [22] 96 % of control

O=S(=O)(O)c1ccc2c(N=Nc3ccc(S(=O)(=O)N(CCCl)CCCl)cc3)c(O)c(S(=O)(=O)O)cc2c1
inactive: [23] 106 % of control | [14] 90 % of control | [15] 93 % of control

COc1ccccc1OCCOCCN(C)C1CC(C)CCC1C(C)C (stereo not given)
inactive: [14] 98 % of control

Cc1ccccc1C(c1ccccc1C)c1ccccc1C(=O)O
inactive: [4] 103 % of control | [5] 105 % of control | [6] 100 % of control | [7] 93 % of control | [8] 97 % of control | [9] 98 % of control

COC(=O)CCC(=O)c1cccc(C)c1
inactive: [5] 88 % of control | [7] 99 % of control | [9] 94 % of control

COC(=O)NS(=O)(=O)c1cccn1C
inactive: [17] 106 % of control | [14] 106 % of control | [18] 104 % of control | [15] 100 % of control | [19] 104 % of control | [16] 95 % of control

COc1ccccc1NC(=O)CC(=O)c1ccc([N+](=O)[O-])cc1
inactive: dose: 100.0 mg/kg/injection, schedule: Q01DX009 (ip), vehicle: saline sonified 103 % of control | [14] 101 % of control | dose: 200.0 mg/kg/injection, schedule: Q01DX009 (ip), vehicle: saline sonified 100 % of control | [15] 105 % of control | dose: 400.0 mg/kg/injection, schedule: Q01DX009 (ip), vehicle: saline sonified 103 % of control | [16] 98 % of control

COc1ccc(CNc2ncccn2)cc1
inactive: [14] 102 % of control | [15] 102 % of control | [16] 107 % of control

C[C@]12CC[C@@H]3c4ccc(O)cc4CC[C@H]3[C@@H]1CC[C@@H]2O
inactive: dose: 500.0 mg/kg/injection, schedule: Q01DX Z (sc), vehicle: water 93 % of control | dose: 1000.0 mg/kg/injection, schedule: Q01DX Z (sc), vehicle: water 90 % of control

CCC(=O)c1ccc(O)cc1
inactive: [14] 102 % of control | [15] 102 % of control | [16] 102 % of control

CCCNC(=O)C1C2C=CC(CC2)C1C(=O)NCCC (stereo not given)
inactive: [5] 92 % of control | [7] 100 % of control | [9] 96 % of control

Cc1ccc(N)c2cccnc12
inactive: [13] 93 % of control

O=C(NCCCl)NC1CCC(O)CC1 (stereo not given)
inactive: [10] 107 % of control | [11] 100 % of control | [12] 100 % of control

O=C(NC(CSC(c1ccc(Cl)cc1)c1ccc(Cl)cc1)C(=O)O)OCc1ccccc1 (stereo not given)
inactive: dose: 25.0 mg/kg/injection, schedule: Q04DX003 (ip), vehicle: Klucel (hydroxypropylcellulose) (HPC) 102 % of control | [23] 91 % of control | [14] 97 % of control

O=C(O)CCC1(CCC(=O)O)OCCO1.[Ag]
inactive: dose: 9.38 mg/kg/injection, schedule: Q01DX001 (ip), vehicle: other 97 % of control | dose: 18.75 mg/kg/injection, schedule: Q01DX001 (ip), vehicle: other 97 % of control | dose: 37.5 mg/kg/injection, schedule: Q01DX001 (ip), vehicle: other 100 % of control

COc1cc2c(c(OC)c1OC)CCc1cnoc1-2
inactive: [1] 97 % of control | [2] 112 % of control | [3] 91 % of control

O=c1onc(-c2ccccc2)c2ccccc12
inactive: dose: 12.5 mg/kg/injection, schedule: Q04DX002 (ip), vehicle: saline with Tween-80 106 % of control | dose: 25.0 mg/kg/injection, schedule: Q04DX002 (ip), vehicle: saline with Tween-80 106 % of control | dose: 50.0 mg/kg/injection, schedule: Q04DX002 (ip), vehicle: saline with Tween-80 103 % of control

O=[N+]([O-])c1ccc(Cl)c(CNc2ncnc3c2ncn3C2CCCCO2)c1 (stereo not given)
inactive: [5] 102 % of control | [7] 92 % of control | [9] 102 % of control

O=C(C[P+](c1ccccc1)(c1ccccc1)c1ccccc1)c1ccc([N+](=O)[O-])cc1
inactive: [20] 105 % of control | [21] 105 % of control | [22] 100 % of control

Cc1ccc(S(=O)(=O)NC(CSCc2ccccc2)C(=O)O)cc1 (stereo not given)
inactive: [4] 92 % of control | [6] 101 % of control
